According to article PMC10150365 (Journal of Medicinal Chemistry, 2023):
Converted amounts (≈) assume the structure as drawn. “And” between values parts separate entries of the source, which are not always exact repeats. Equal entries are not always repeated. Where two headings read alike, the source gives them in different places. Marks after values point to notes of the source that are not given here.

Key:
[1] = Plasma protein binding and blood-to-plasma ratio; details: for fub: BALB/c mouse blood, fub = fup/B:P; for Plasma, fup: BALB/c mouse, 90% CI
[2] = Plasma protein binding and blood-to-plasma ratio; assay type: in vitro ADME, rat
[3] = Rat blood PK (Sprague-Dawley); assay type: in vivo; details: SD rats
[4] = Free fraction in CellTiter-Blue assay medium (dialysis); assay type: in vitro ADME; details: dialysis from CellTiter-Blue assay medium; 90% CI
in vitro [5] = details: human; for recovery: Caco-2, pH 7.4, Recovery
[6] = Plasma protein binding and blood-to-plasma ratio; assay type: in vitro ADME, mouse
Plasma stability = assay type: in vitro ADME; details: pooled plasma, read-out: Compound remaining (% of 0 min); for remaining at 15 min, 1 µM: 37 °C
Experimental: AUCu0-24h was assumed from the mouse efficacy study. […] F=oral bioavailability and
Compd Species Compound remaining (% of 0 min)

in vitro [7] = assay type: in vitro ADME; details: mouse
[8] = iv PK in CF1 wild-type and P-gp-knockout mice; assay type: in vivo, mouse; details: mouse, in vivo, iv, 5 mg/kg, read-out: Vss
P-gp = experiment: iv PK in CF1 wild-type and P-gp-knockout mice; assay type: in vivo, mouse; details: for Cltb: 5 mg/kg iv, 90% CI, 5 mg/kg
physchem [9] = details: pH 7.4
in vitro [10] = assay type: in vitro ADME; details: both sexes, human, microsomes, pH 7.4; n = 1, fraction unbound assumed 1; read-out: Microsome Clint, human (HLM)
physchem [11] = details: pH 7.4; remark: listed apart in the source
SK-OV-3 = experiment: cells; assay type: cell-based, human; details: for GI50: Homo sapiens
in vitro [12] = assay type: in vitro ADME; details: male, Sprague Dawley, rat, microsomes, pH 7.4; n = 1, fraction unbound assumed 1; read-out: Microsome Clint, rat (RLM)
in vitro [13] = assay type: in vitro ADME, mouse
[14] = test system: P-gp-mediated efflux (CH1^doxR/CH1^WT); assay type: cell-based, human; details: ratio of geometric mean GI50 values, CellTiter-Blue
CH1^WT = experiment: CH1 WT growth inhibition, CellTiter-Blue; assay type: cell-based; details: Homo sapiens, CH1WT
CH1^doxR = experiment: CH1doxR growth inhibition, CellTiter-Blue; assay type: cell-based, human
[15] = test system: human ovarian cancer cell lines; details: carboplatin N = 4 cell lines; 1 N = 9 cell lines
RMG-1 = details: RMG-1, 96 h
OVCAR5 = details: OVCAR5, 96 h
PA1 = details: PA1, 96 h
[16] = female, BALB/c, mouse, in vivo, po, 5 mg/kg

For `Cc1ccc(NC(=O)c2ccc3c(c2)OCCO3)cc1NC(=O)c1ccc2nc(OCCN3CCCC3)ccc2c1` [Compound 1], the fub [1] was 0.0083, the “Plasma, fup” value [1] was 0.010 and the fub ([2]; Sprague Dawley rat blood, fub = fup/B:P) was 0.019. The “Plasma, fup” value ([2]; Sprague Dawley rat, 90% CI) was 0.029 (0.036-0.023), the Fmax [3] was 71% and the “iv Cltb” value ([3]; iv) was 20 mL/min/kg. The “Free Cav^0–24h” value ([3]; po (Table S12)) was 0.72 nM, the Vdu ([3]; Vss/fub) was 230 L/kg and the Cmax ([3]; female, Sprague-Dawley (CD), rat, whole blood, 5 mg/kg, po) was 63 nM. The bioavailability at 24 h ([3]; female, Sprague-Dawley (CD), rat, whole blood, po, 5 mg/kg) was 11%, the Vd ([3]; female, Sprague-Dawley (CD), rat, whole blood, iv, read-out: Vss) was 4.4 L/kg and the Tmax ([3]; female, Sprague-Dawley, rat, whole blood, 5 mg/kg, po) was > 6 h. For the same compound, the half-life ([3]; female, Sprague-Dawley, rat, whole blood, 5 mg/kg, terminal, from iv dose) was 3.2 h, the AUC ([3]; female, Sprague-Dawley, rat, whole blood, po, 5 mg/kg, po, t = 24 h, read-out: po AUC^0–t) was 0.84 µM·h and the “Assay medium, fua” value [4] was 0.47 (0.54-0.42). The A2B (Caco-2; geometric mean) was 2.4 nm/s, the B2A (Caco-2; geometric mean) was 39 nm/s and the “A2B + LY335979” value (Caco-2; individual experiments) was 2.3 nm/s. For the same compound, the B2A (Caco-2; individual experiments) was 23 nm/s and 46 nm/s and 55 nm/s, the “B2A + LY335979” value (Caco-2; individual experiments) was 15 nm/s and the Papp A→B at 2 h, 10 µM (in vitro [5]; Caco-2, pH 7.4) was 2.4 ×10⁻⁶ cm/s. For the same compound, the recovery (in vitro [5]; A2B + LY335979, geometric mean row) was 50%, the recovery (in vitro [5]; A2B + LY335979, individual experiments) was 50% and the recovery (in vitro [5]; A2B, geometric mean row) was 90%. It also gave a recovery (in vitro [5]; A2B, individual experiments) of 90%, a recovery (in vitro [5]; B2A + LY335979, geometric mean row) of 100% and a recovery (in vitro [5]; B2A + LY335979, individual experiments) of 100%. For the same compound, the recovery (in vitro [5]; B2A, geometric mean row) was 70%, the recovery (in vitro [5]; B2A, individual experiments) was 70% and the fub ([6]; athymic mouse blood, fub = fup/B:P) was 0.015. The “Plasma, fup” value ([6]; athymic mouse, 90% CI) was 0.025 (0.031-0.020), the remaining at 15 min, 1 µM (Plasma stability; human plasma) was 104% and the remaining at 30 min, 1 µM (Plasma stability; human plasma) was 96.4%. The remaining at 60 min, 1 µM (Plasma stability; human plasma) was 97%, the remaining at 120 min, 1 µM (Plasma stability; human plasma) was 95.1% and the remaining at 15 min, 1 µM (Plasma stability; mouse plasma) was 97.8%. It also gave a remaining at 30 min, 1 µM (Plasma stability; mouse plasma) of 91.3%, a remaining at 60 min, 1 µM (Plasma stability; mouse plasma) of 93.3% and a remaining at 120 min, 1 µM (Plasma stability; mouse plasma) of 85.9%.
In the case of `Cc1ccc(NC(=O)c2ccc3c(c2)OCCO3)cc1NC(=O)c1ccc2nc(CN3CCN(C(C)C)CC3)ccc2c1` [Compound 16, N-(5-(2,3-Dihydrobenzo[b][1,4]dioxine-6-carboxamido)-2-methylphenyl)-2-((4-isopropylpiperazin-1-yl)methyl)quinoline-6-carboxamide], the fub [1] is reported as 0.032, the “Plasma, fup” value [1] is reported as 0.042 (0.071-0.024) and the blood plasma ratio at 30 min, 1 µM ([1]; female, BALB/c, mouse, plasma) is reported as 1.3. The hepatocyte CLint at 1 h, 1 µM (in vitro [7]; hepatocytes, n = 1, read-out: Mouse Heps CLint) was 20 µL/min/1e6 cells, the “Pred. in vivo CLu from Heps” value (in vitro [7]; fraction unbound in assay assumed 0.4 or 0.2) was 460 ^h mL/min/kg and the Vd ([8]; CF1 mdr1a P-gp deficient (CF1-Abcb1amds), CF1^PGP-KO mice) was 3.6 L/kg. For the same compound, the Vd ([8]; CF1 wild type, CF1^WT mice) was 3.2 L/kg, the “Extraction Ratio (% of HBF)” value (P-gp; CF1^PGP-KO mice) was 27 (21-34) % and the Cltb (P-gp; CF1^PGP-KO mice) was 24 mL/min/kg and 24 (31-19) mL/min/kg. The “Extraction Ratio (% of HBF)” value (P-gp; CF1^WT mice) was 39 (46-33) %, the Cltb (P-gp; CF1^WT mice) was 35 mL/min/kg and 35 (42-30) mL/min/kg and the Fmax (Mouse blood PK (BALB/c); BALB/c mice) was 62%. For the same compound, the “iv Cltb” value (Mouse blood PK (BALB/c); BALB/c mice, iv 5 mg/kg (18: 1 mg/kg), 90% CI) was 34 (36–32) mL/min/kg, the “Free Cav^0–24h” value (Mouse blood PK (BALB/c); BALB/c mice, po, AUC^inf/24*fub) was 0.66 nM and the CLu (Mouse blood PK (BALB/c); BALB/c mice, CLtb/fub) was 1100 mL/min/kg. The Vdu (Mouse blood PK (BALB/c); BALB/c mice, Vss/fub) was 80 L/kg, the extraction ratio (Mouse blood PK (BALB/c); BALB/c mice, hepatic blood flow 90 mL/min/kg) was 38% and the Vd (Mouse blood PK (BALB/c); female, BALB/c, mouse, in vivo, iv) was 2.6 L/kg. It also gave a half-life at 24 h (Mouse blood PK (BALB/c); female, BALB/c, mouse, in vivo, iv, 5 mg/kg) of 1.2 h, a Cmax (Mouse blood PK (BALB/c); [16]) of 130 nM and a Tmax at 24 h (Mouse blood PK (BALB/c); [16]) of 1.7 h. The bioavailability at 24 h (Mouse blood PK (BALB/c); [16]) was 11%, the AUC (Mouse blood PK (BALB/c); female, BALB/c, mouse, in vivo, po, 5 mg/kg, AUCu^0–6h, BALB/c mice, AUC*fub) was 0.014 µM·h and the AUC (Mouse blood PK (BALB/c); female, BALB/c, mouse, in vivo, po, 5 mg/kg, po AUC^0–6h, BALB/c mice, po 5 mg/kg, 90% CI) was 0.43 µM·h. For the same compound, the chromatographic logD (physchem [9]) was 1.9, the microsomal CLint at 0.75 h, 1 µM (in vitro [10]) was 43 µL/min/mg and the solubility kinetic at 2 h, 100 µM (physchem [11]) was 80 µM (≈ 46.4 µg/mL). The GI50 (SK-OV-3; SK-OV-3, 96 h, read-out: SK-OV-3 pGI50 ± SEM (n) (converted)) was 8.71 nM, the GI50 (SK-OV-3; SK-OV-3, 96 h, CellTiter-Blue, geometric mean, read-out: SK-OV-3 GI50) was 8.8 nM and the microsomal CLint at 0.75 h, 1 µM (in vitro [12]) was 7 µL/min/mg. The microsomal CLint (in vitro [13]; male, CD1, mouse, microsomes, pH 7.4, n = 1, fraction unbound assumed 1, read-out: Microsome Clint, mouse (MLM)) was 10 µL/min/mg, the “Pred. in vivo CLu from MLM” value (in vitro [13]; scaling factors, well-stirred model) was 39 mL/min/kg and the “CH1^doxR/CH1^WT (fold resistance)” value [14] was 8.4.
With `COc1cccc2c1C(=O)c1c(O)c3c(c(O)c1C2=O)C[C@@](O)(C(=O)CO)C[C@@H]3O[C@H]1C[C@H](N)[C@H](O)[C@H](C)O1` [Doxorubicin] the GI50 (CH1^WT; + verapamil 2 µM) was 0.3 nM, the GI50 (CH1^WT; no verapamil) was 0.4 nM and the GI50 (CH1^doxR; Homo sapiens, + verapamil 2 µM) was 1.9 nM. The GI50 (CH1^doxR; Homo sapiens, no verapamil) was 310 nM and the GI50 (CH1^doxR; no verapamil) was 305 nM.
For Carboplatin, the “pGI50 across the panel” value [15] was < 6, the “pGI50±SEM (n)” value (RMG-1) was < 4.7 and the “pGI50±SEM (n)” value (OVCAR5) was < 5.0. For the same compound, the “SK-OV-3 pGI50 ± SEM (n)” value (SK-OV-3; 96 h, CellTiter-Blue, pGI50 = −log GI50 (M)) was < 4.7 and the “pGI50±SEM (n)” value (PA1) was 5.8.
